The record followed here is US8735414B2 (priority 2009, dated 2014).

In data set [1] the test system is bicistronic HCV replicon (replicon RNA, GenBank Accession No. AJ242654). As to the kind of experiment: HCV Replicon Assay. It counts as cell-based. The conditions noted are these: Hepatitis C virus, 72 h, read-out: Replicon IC50. (In general: A replicon is a self-replicating genome or part of one, used to study replication in cells.)

In general, IC50 refers to the midpoint of a concentration-inhibition curve. A word on the melting point: it is the temperature of the solid-liquid transition. In turn, `Cc1ccnc(-n2c(-c3ccc(S(=O)(=O)N[C@@H](C)C(F)(F)F)cn3)c(C#N)c3cc(F)c(C)cc32)c1` [compound 886, 6-[3-cyano-5-fluoro-6-methyl-1-(4-methylpyridin-2-yl)-1H-indol-2-yl]-N-[(2S)-1,1,1-trifluoropropan-2-yl]pyridine-3-sulfonamide] displayed a melting point of 200 to 204 °C. Moreover, in data set [1], the half-maximal inhibitory concentration (IC50) was under 500 nM.

The molecule `CCc1cc2c(cc1F)c(S(C)(=O)=O)c(-c1ccc(S(=O)(=O)NC(C)(C)C)cn1)n2-c1ncccn1` [compound 869, N-tert-butyl-6-(6-ethyl-5-fluoro-3-(methylsulfonyl)-1-(pyrimidin-2-yl)-1H-indol-2-yl)pyridine-3-sulfonamide] returned a melting point of 244 to 248 °C. Also, in data set [1], the IC50 was 500 to 2000 nM.

Molecule `Cc1cc2c(cc1F)c(C#N)c(-c1ccc(S(=O)(=O)NC(C)(C)C)cn1)n2C1CCCCC1` [compound 710, N-tert-butyl-6-(3-cyano-1-cyclohexyl-5-fluoro-6-methyl-1H-indol-2-yl)pyridine-3-sulfonamide] gave a melting point of 244 to 245 °C. For the same molecule, the IC50 in data set [1] was under 500 nM.

As to `CCc1cc2c(cc1F)c(C(N)=O)c(-c1ccc(S(=O)(=O)N[C@@H](C)C(F)(F)F)cn1)n2-c1cccc(F)n1` [compound 995, 6-ethyl-5-fluoro-1-(6-fluoropyridin-2-yl)-2-(5-{[(2S)-1,1,1-trifluoropropan-2-yl]sulfamoyl}pyridin-2-yl)-1H-indole-3-carboxamide], the melting point was 230 to 233 °C. In addition, in data set [1], the IC50 was under 500 nM.

`N#Cc1c(-c2ncc(S(=O)(=O)NC(CF)CF)cn2)n(C2CCCCC2)c2cc(F)ccc12` [compound 235, 2-(3-cyano-1-cyclohexyl-6-fluoro-1H-indol-2-yl)-N-(1,3-difluoropropan-2-yl)pyrimidine-5-sulfonamide] returned a melting point of 213 to 218 °C. Also, the 50% inhibitory concentration (IC50) in data set [1] is under 500 nM.

In turn, `C[C@H](NS(=O)(=O)c1ccc(-c2c(C#N)c3ccc(F)cc3n2C2CCC2)nc1)C1CC1` [compound 144, 6-(3-cyano-1-cyclobutyl-6-fluoro-1H-indol-2-yl)-N-[(1S)-1-cyclopropylethyl]pyridine-3-sulfonamide] registered a melting point of 136 to 138 °C. Moreover, the concentration for half-maximal inhibition (IC50) in data set [1] was under 500 nM.

As for `Cc1cc2c(cc1O)c(C#N)c(-c1ccc(S(=O)(=O)NC(C)(C)C)cn1)n2C1CCC1` [compound 805, N-tert-butyl-6-(3-cyano-1-cyclobutyl-5-hydroxy-6-methyl-1H-indol-2-yl)pyridine-3-sulfonamide], the melting point lay within 211 to 213 °C. The half-inhibitory concentration (IC50) in data set [1] lay within 500 to 2000 nM.

For `Cc1ccc2c(C#N)c(-c3ncc(S(=O)(=O)NC(CF)CF)cn3)n(CC3CC3)c2c1` [compound 133, 2-[3-cyano-1-(cyclopropylmethyl)-6-methyl-1H-indol-2-yl]-N-(1,3-difluoropropan-2-yl)pyrimidine-5-sulfonamide], the melting point is 261 to 262 °C. Moreover, the half-maximal inhibitory concentration (IC50) in data set [1] was under 500 nM.

Take `COc1ccc2c(c1)c(C#N)c(-c1ccc(S(=O)(=O)N[C@H](C)C(F)(F)F)cn1)n2C1CCC1` [compound 500, 6-(3-cyano-1-cyclobutyl-5-methoxy-1H-indol-2-yl)-N-[(2R)-1,1,1-trifluoropropan-2-yl]pyridine-3-sulfonamide]: the melting point lay within 181 to 186 °C. The IC50 in data set [1] is under 500 nM.

`Cc1ccc2c(C#N)c(-c3ccc(S(=O)(=O)NC4(C(F)(F)F)CCC4)cn3)n(C3CCC3)c2c1` [compound 587, 6-(3-cyano-1-cyclobutyl-6-methyl-1H-indol-2-yl)-N-[1-(trifluoromethyl)cyclobutyl]pyridine-3-sulfonamide] yielded a melting point of 228 to 232 °C. Also, the half-inhibitory concentration (IC50) in data set [1] is under 500 nM.

In turn, `C[C@@H](NS(=O)(=O)c1ccc(-c2c(C#N)c3ccc(OC(F)(F)F)cc3n2C2CCC2)nc1)C(F)(F)F` [compound 191, 6-[3-cyano-1-cyclobutyl-6-(trifluoromethoxy)-1H-indol-2-yl]-N-[(2R)-1,1,1-trifluoropropan-2-yl]pyridine-3-sulfonamide] registered a melting point of 171 to 177 °C. Besides, the IC50 in data set [1] lay within 500 to 2000 nM.

Take `Cc1cc2c(cc1F)c(C#N)c(-c1ccc(S(=O)(=O)N[C@@H](C)C(F)(F)F)cn1)n2-c1cccnc1` [compound 893, 6-[3-cyano-5-fluoro-6-methyl-1-(pyridin-3-yl)-1H-indol-2-yl]-N-[(2S)-1,1,1-trifluoropropan-2-yl]pyridine-3-sulfonamide]: the melting point was in the range of 217 to 221 °C. In addition, the IC50 in data set [1] was under 500 nM.

Molecule `COc1ccc2c(C#N)c(-c3ccc(S(=O)(=O)N[C@H](C)C(F)(F)F)cn3)n(C3CCC3)c2c1` [compound 428, 6-(3-cyano-1-cyclobutyl-6-methoxy-1H-indol-2-yl)-N-[(2R)-1,1,1-trifluoropropan-2-yl]pyridine-3-sulfonamide] came in with a melting point of 206 to 212 °C. The concentration for half-maximal inhibition (IC50) in data set [1] is under 500 nM.

For the molecule `CC(C)NS(=O)(=O)c1ccc(-c2c(C#N)c3ccc(C(F)F)cc3n2C2CCC2)nc1` [compound 333, 6-[3-cyano-1-cyclobutyl-6-(difluoromethyl)-1H-indol-2-yl]-N-(propan-2-yl)pyridine-3-sulfonamide], the melting point is 212 to 220 °C.

`C[C@H](NS(=O)(=O)c1ccc(-c2c(C(N)=O)c3cc(F)c(C4CC4)cc3n2C2CCCC2)nc1)C(F)(F)F` [compound 842, 1-cyclopentyl-6-cyclopropyl-5-fluoro-2-(5-{[(2S)-1,1,1-trifluoropropan-2-yl]sulfamoyl}pyridin-2-yl)-1H-indole-3-carboxamide] came in with a melting point of 255 to 257 °C.

For the molecule `CC(C#N)NS(=O)(=O)c1ccc(-c2c(C#N)c3ccc(OC(F)F)cc3n2C2CCC2)nc1` (stereo not drawn) [compound 301, 6-[3-cyano-1-cyclobutyl-6-(difluoromethoxy)-1H-indol-2-yl]-N-(1-cyanoethyl)pyridine-3-sulfonamide], the melting point is 188 to 190 °C.

Molecule `CC(C)NS(=O)(=O)c1ccc(-c2c(C#N)c3ccc(OCC(F)F)cc3n2C2CCC2)nc1` [compound 59, 6-[3-cyano-1-cyclobutyl-6-(2,2-difluoroethoxy)-1H-indol-2-yl]-N-(propan-2-yl)pyridine-3-sulfonamide] came in with a melting point of 171 to 173 °C.

The molecule `C[C@H](NS(=O)(=O)c1ccc(-c2c(C#N)c3ccc(OC(F)F)cc3n2C2CCC2)nc1)C1CC1` [compound 151, 6-[3-cyano-1-cyclobutyl-6-(difluoromethoxy)-1H-indol-2-yl]-N-[(1S)-1-cyclopropylethyl]pyridine-3-sulfonamide] yielded a melting point of 163 to 168 °C.

For `CC(C)NS(=O)(=O)c1ccc(-c2c(C#N)c3cc(F)ccc3n2C2CCC2)nc1` [compound 5, 6-(3-cyano-1-cyclobutyl-5-fluoro-1H-indol-2-yl)-N-(propan-2-yl)pyridine-3-sulfonamide], the melting point lay in the range of 203 to 205 °C.

`N#Cc1c(-c2ccc(S(=O)(=O)NC(CF)CF)cn2)n(C2CCC2)c2cc(OC(F)F)ccc12` [compound 31, 6-[3-cyano-1-cyclobutyl-6-(difluoromethoxy)-1H-indol-2-yl]-N-(1,3-difluoropropan-2-yl)pyridine-3-sulfonamide]: the melting point is 159 to 161 °C.

`N#Cc1c(-c2ccc(S(N)(=O)=O)cn2)n(C2CCC2)c2cc(OC(F)F)ccc12` [compound 552, 6-[3-cyano-1-cyclobutyl-6-(difluoromethoxy)-1H-indol-2-yl]pyridine-3-sulfonamide] yielded a melting point of 204 to 205 °C.

In turn, `CC(C)NS(=O)(=O)c1ccc(-c2c(C#N)c3ccc(SC(C)C)cc3n2C2CCC2)nc1` [compound 16, 6-[3-cyano-1-cyclobutyl-6-(propan-2-ylsulfanyl)-1H-indol-2-yl]-N-(propan-2-yl)pyridine-3-sulfonamide] had a melting point of 129 to 131 °C.

As to `CC(C)NS(=O)(=O)c1ccc(-c2c(C#N)c3ccc(OC(F)F)cc3n2C2CCC2)nc1` [compound 51, 6-[3-cyano-1-cyclobutyl-6-(difluoromethoxy)-1H-indol-2-yl]-N-(propan-2-yl)pyridine-3-sulfonamide], the melting point was 158 to 159 °C.

`CC(C)NS(=O)(=O)c1ccc(-c2c(C#N)c3ccc(OC(F)F)cc3n2C(C)C)nc1` [compound 1, 6-[3-cyano-6-(difluoromethoxy)-1-(propan-2-yl)-1H-indol-2-yl]-N-(propan-2-yl)pyridine-3-sulfonamide]: the melting point is 157 to 159 °C.

`N#Cc1c(-c2ccc(S(=O)(=O)NC3(C(F)(F)F)CCC3)cn2)n(C2CCC2)c2cc(OC(F)F)ccc12` [compound 106, 6-[3-cyano-1-cyclobutyl-6-(difluoromethoxy)-1H-indol-2-yl]-N-[1-(trifluoromethyl)cyclobutyl]pyridine-3-sulfonamide] came in with a melting point of 162 to 168 °C.

In turn, `CC(C)NS(=O)(=O)c1ccc(-c2c(C#N)c3cc(OC(F)(F)F)ccc3n2C2CCC2)nc1` [compound 23, 6-[3-cyano-1-cyclobutyl-5-(trifluoromethoxy)-1H-indol-2-yl]-N-(propan-2-yl)pyridine-3-sulfonamide] yielded a melting point of 174 to 176 °C.

Consider `CC(C)NS(=O)(=O)c1cnc(-c2c(C#N)c3ccc(OC(F)F)cc3n2CC2CC2)nc1` [compound 170, 2-[3-cyano-1-(cyclopropylmethyl)-6-(difluoromethoxy)-1H-indol-2-yl]-N-(propan-2-yl)pyrimidine-5-sulfonamide], for which the melting point lay in the range of 182 to 184 °C.

Regarding `N#Cc1c(-c2ccc(S(=O)(=O)NC(CO)CO)cn2)n(C2CCC2)c2cc(OC(F)F)ccc12` [compound 239, 6-[3-cyano-1-cyclobutyl-6-(difluoromethoxy)-1H-indol-2-yl]-N-(1,3-dihydroxypropan-2-yl)pyridine-3-sulfonamide], the melting point lay within 132 to 135 °C.

`CC(C)NS(=O)(=O)c1ccc(-c2c(C#N)c3ccc(OC(F)F)cc3n2C2CCCC2)nc1` [compound 52, 6-[3-cyano-1-cyclopentyl-6-(difluoromethoxy)-1H-indol-2-yl]-N-(propan-2-yl)pyridine-3-sulfonamide] registered a melting point of 157 to 158 °C.
